As a reminder, the IC50 is the point on the concentration scale where inhibition reaches its midpoint.

Here are results for 24 molecules from patent US9216173B2, “2-Pyridyl carboxamide-containing spleen tyrosine kinase (SYK) inhibitors” (Merck Sharp & Dohme Corp., priority 2011, dated 2015).

In the experiment the target is T1, recombinant human GST-SYK (Homo sapiens, UniProt P43405).
T1 construct: purchased Carna Biosciences 08-176
In words: Homogeneous Time-Resolved Fluorescence (HTRF) assay for the recombinant human Syk enzyme. The note with it: GST-hSYK 5 pM, ATP 25 μM, 10-dose titration 10 μM to 0.508 nM; read-out: rhSYK Activity (IC50 rating). The experiment is classed as biochemical. A digest of the protocol: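 GST-hSYK fusion phosphorylates a peptide for 45 min at room temperature. Quenched with EDTA buffer containing 2 nM Eu-anti-phosphotyrosine antibody and 70 nM SA-APC. HTRF signal read after 30 min.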
With `CN1CCN(c2cccc(Nc3cc(N[C@@H]4CCCC[C@@H]4N)cnc3C(N)=O)n2)CC1` [Example 1.119, 5-{[(1R,2S)-2-aminocyclohexyl]amino}-3-{[6-(4-methylpiperazin-1-yl)pyridin-2-yl]amino}pyridine-2-carboxamide], the IC50 is < 0.01 µM.

Turning to `Cc1cccc(Nc2cc(N[C@@H]3CCCC[C@@H]3N)cnc2C(N)=O)n1` [Example 1.7, 5-{[(1R,2S)-2-aminocyclohexyl]amino}-3-[(6-methylpyridin-2-yl)amino]pyridine-2-carboxamide], the IC50 is < 0.01 µM.

As to `Cc1nc(Nc2cc(NC[C@H](C)N)cnc2C(N)=O)ccc1-c1cn(C)cn1` [Example 1.10, 5-{[(2S)-2-aminopropyl]amino}-3-{[6-methyl-5-(1-methyl-1H-imidazol-4-yl)pyridin-2-yl]amino}pyridine-2-carboxamide], the IC50 is < 0.01 µM.

Turning to `Cc1nc(Nc2cc(N[C@@H]3CCCC[C@@H]3N)cnc2C(N)=O)ccc1-c1ccc(N2CCN(C)CC2)cc1` [Example 3.13, 5-{[(1R,2S)-2-aminocyclohexyl]amino}-3-({6-methyl-5-[4-(4-methylpiperazin-1-yl)phenyl]pyridin-2-yl}amino)pyridine-2-carboxamide], the IC50 was < 0.01 µM.

With `COc1ccc(-c2ccc(Nc3cc(N[C@@H]4CCCC[C@@H]4N)cnc3C(N)=O)nc2C)cn1` [Example 3.22, 5-{[(1R,2S)-2-aminocyclohexyl]amino}-3-[(6′-methoxy-2-methyl-3,3′-bipyridin-6-yl)amino]pyridine-2-carboxamide], the IC50 is < 0.01 µM.

Take `Cc1cc(OCc2ccccc2)cc(Nc2cc(N[C@@H]3CCCC[C@@H]3N)cnc2C(N)=O)n1` [Example 5.3, 5-{[(1R,2S)-2-aminocyclohexyl]amino}-3-{[4-(benzyloxy)-6-methylpyridin-2-yl]amino}pyridine-2-carboxamide]: the IC50 is < 0.01 µM.

As to `CC(C)(O)COCc1cccc(Nc2cc(N[C@@H]3CCCC[C@@H]3N)cnc2C(N)=O)n1` [Example 1.120, 5-{[(1R,2S)-2-aminocyclohexyl]amino}-3-({6-[(2-hydroxy-2-methylpropoxy)methyl]pyridin-2-yl}amino)pyridine-2-carboxamide], the IC50 was < 0.01 µM.

With `Cc1cc(C)nc(Nc2cc(N[C@@H]3CCC[C@@H]3N)cnc2C(N)=O)c1` (relative stereo) [Example 1.18, rel-5-{[(1R,2S)-2-aminocyclopentyl]amino}-3-[(4,6-dimethylpyridin-2-yl)amino]pyridine-2-carboxamide], the IC50 is < 0.01 µM.

Regarding `Cc1cc(C)nc(Nc2cc(N[C@H]3CCC[C@H]3N)cnc2C(N)=O)c1` (single isomer, unassigned) [Example 1.26], the IC50 is < 0.01 µM.

For `Cc1cccc(-c2ccc(Nc3cc(N[C@@H]4CCCC[C@@H]4N)cnc3C(N)=O)nc2C)c1O` [Example 3.28, 5-{[(1R,2S)-2-aminocyclohexyl]amino}-3-{[5-(2-hydroxy-3-methylphenyl)-6-methylpyridin-2-yl]amino}pyridine-2-carboxamide], the IC50 was in the range of 0.01 to 0.1 µM.

Consider `Cc1nc(Nc2cc(N[C@@H]3CCCC[C@@H]3N)cnc2C(N)=O)ccc1C(=O)N(C)C` [Example 17, 5-{[(1R,2S)-2-aminocyclohexyl]amino}-3-{[5-(dimethylcarbamoyl)-6-methylpyridin-2-yl]amino}pyridine-2-carboxamide], for which the IC50 lay within 0.01 to 0.1 µM.

In the case of `COC[C@H](N)CNc1cnc(C(N)=O)c(Nc2ccn(C)n2)c1` [Example 1.98, 5-{[(2R)-2-amino-3-methoxypropyl]amino}-3-[(1-methyl-1H-pyrazol-3-yl)amino]pyridine-2-carboxamide], the IC50 was in the range of 0.1 to 1 µM.

As for `Cc1cc(C)nc(Nc2cc(NCC3(N)CCOCC3)cnc2C(N)=O)c1` [Example 1.34, 5-{[(4-aminotetrahydro-2H-pyran-4-yl)methyl]amino}-3-[(4,6-dimethylpyridin-2-yl)amino]pyridine-2-carboxamide], the IC50 was in the range of 0.01 to 0.1 µM.

Take `NC(=O)c1ncc(N[C@@H]2CCCC[C@@H]2N)cc1Nc1ncn(-c2ccccc2)n1` [Example 1.44, 5-{[(1R,2S)-2-aminocyclohexyl]amino}-3-[(1-phenyl-1H-1,2,4-triazol-3-yl)amino]pyridine-2-carboxamide]: the IC50 was in the range of 0.01 to 0.1 µM.

With `COc1ccc(-c2ccc(Nc3cc(N[C@@H]4CCCC[C@@H]4N)cnc3C(N)=O)nc2C)cc1OC` [Example 3.4, 5-{[(1R,2S)-2-aminocyclohexyl]amino}-3-{[5-(3,4-dimethoxyphenyl)-6-methylpyridin-2-yl]amino}pyridine-2-carboxamide], the IC50 was < 0.01 µM.

As for `NC(=O)c1ncc(N[C@@H]2CCCC[C@@H]2N)cc1Nc1cccc(-c2ccccn2)n1` [Example 1.42, 5-{[(1R,2S)-2-aminocyclohexyl]amino}-3-(2,2′-bipyridin-6-ylamino)pyridine-2-carboxamide], the concentration for half-maximal inhibition (IC50) is < 0.01 µM.

As for `CCOCC(N)CNc1cnc(C(N)=O)c(Nc2cc(C)cc(C)n2)c1` (stereo not drawn) [Example 1.70, 5-[(2-amino-3-ethoxypropyl)amino]-3-[(4,6-dimethylpyridin-2-yl)amino]pyridine-2-carboxamide], the IC50 was < 0.01 µM.

As for `Cc1cc(C)nc(Nc2cc(NC3CC(N)C3)cnc2C(N)=O)c1` (stereo not drawn) [Example 2.15, 5-[(3-aminocyclobutyl)amino]-3-[(4,6-dimethylpyridin-2-yl)amino]pyridine-2-carboxamide], the concentration for half-maximal inhibition (IC50) is 0.01 to 0.1 µM.

`Cc1nc(Nc2cc(N[C@@H]3CCCC[C@@H]3N)cnc2C(N)=O)ccc1-c1ccc(OC(F)F)cc1` [Example 3.10, 5-{[(1R,2S)-2-aminocyclohexyl]amino}-3-({5-[4-(difluoromethoxy)phenyl]-6-methylpyridin-2-yl}amino)pyridine-2-carboxamide]: the IC50 is < 0.01 µM.

Regarding `COC[C@H](N)CNc1cnc(C(N)=O)c(Nc2cccc(C(F)(F)F)n2)c1` [Example 1.105, 5-{[(2R)-2-amino-3-methoxypropyl]amino}-3-{[6-(trifluoromethyl)pyridin-2-yl]amino}pyridine-2-carboxamide], the IC50 was < 0.01 µM.

`CCC(C)(N)CNc1cnc(C(N)=O)c(Nc2cc(C)cc(C)n2)c1` (stereo not drawn) [Example 1.117, 5-[(2-amino-2-methylbutyl)amino]-3-[(4,6-dimethylpyridin-2-yl)amino]pyridine-2-carboxamide]: the half-maximal inhibitory concentration (IC50) was < 0.01 µM.

Regarding `CCn1cnc(Nc2cc(N[C@@H]3CCCC[C@@H]3N)cnc2C(N)=O)n1` [Example 1.56, 5-{[(1R,2S)-2-aminocyclohexyl]amino}-3-[(1-ethyl-1H-1,2,4-triazol-3-yl)amino]pyridine-2-carboxamide], the IC50 lay in the range of 0.1 to 1 µM.

For the molecule `COC[C@H](N)CNc1cnc(C(N)=O)c(Nc2cccc(-n3nccn3)n2)c1` [Example 1.82, 5-{[(2R)-2-amino-3-methoxypropyl]amino}-3-{[6-(2H-1,2,3-triazol-2-yl)pyridin-2-yl]amino}pyridine-2-carboxamide], the IC50 is < 0.01 µM.

Take `Cc1nc(Nc2cc(N[C@@H]3CCCC[C@@H]3N)cnc2C(N)=O)ccc1-c1cccc(N(C)S(C)(=O)=O)c1` [Example 3.19, 5-{[(1R,2S)-2-aminocyclohexyl]amino}-3-[(6-methyl-5-{3-[methyl(methylsulfonyl)amino]phenyl}pyridin-2-yl)amino]pyridine-2-carboxamide]: the concentration for half-maximal inhibition (IC50) was < 0.01 µM.
